target: human NAMPT enzyme (His-hNAMPT) (Homo sapiens (Human), UniProt P43490); assay: NAMPT enzymatic inhibition assay (fluorescence, NADH product); format: biochemical; conditions: [BPS]; read-out: NAMPT IC50 (μM) [BPS]
Protocol: The compounds were then diluted 20 fold in an intermediate dilution to 5% DMSO and water. Finally 10 μL of each compound was added to the assay plate, in duplicate, with highest concentration at 30 μM and the lowest at 0.001 μM in a final volume of 50 μL and 1% DMSO concentration. Each assay also tested, in parallel, two reference compounds, FK866 and GMX1778, with highest concentration at 10 μM and lowest at 0.0003 μM. 200 ng of human NAMPT enzyme (His-hNAMPT obtained from E. coli expression system) diluted in […] (tris-buffered saline-Polysorbate 20) 1× was added to each well in a volume of 10 μL and the compounds were incubated with the enzyme at room temperature for 20 minutes. After the incubation, 30 μL of master mixture were added to each well. The master mixture contained: 50 mM Tris-HCl, pH 8.0, 12.5 mM MgCl2, 20 μM nicotinamide, 40 μM phosphoribosyl pyrophosphate (PRPP), 20 μM adenosine triphosphate (ATP), 30 μg/mL of alcohol dehydrogenase, 10 μg/mL of NMNAT, 1.5% alcohol, 1 mM dithiothreitol (DTT), 0.02% bovine serum albumin (BSA), 0.01% Tween 20. The reaction was performed at 30° C. for 60 minutes. Fluorescence intensity was measured at an excitation of 340 nm and an emission of 460 nm using a Tecan Infinite M1000 microplate reader. The fluorescence values indicated increase of NADH product.
Enzyme activity assay was performed in duplicate at each concentration. The fluorescence data was analyzed and compared. In the absence of the compound, the intensity (Ce) in each data set was defined as 100% activity. In the absence of enzyme, the intensity (C0) in each data set was defined as 0% activity. The percent activity in the presence of each compound was calculated according to the following equation: % activity=(C−C0)/(Ce−C0), where C is the fluorescence in the presence of the compound.
The % activity vs. compound concentrations were then plotted using non-linear regression analysis of Sigmoidal dose-response curve generated with the equation Y=B+(T−B)/1+10^((Log EC50-X)×Hill Slope), where Y is percent activity, B is minimum percent activity, T is maximum percent activity, X is logarithm of compound and Hill Slope=slope factor or Hill coefficient.

Sequence of human NAMPT enzyme (His-hNAMPT) (P43490 whole entry): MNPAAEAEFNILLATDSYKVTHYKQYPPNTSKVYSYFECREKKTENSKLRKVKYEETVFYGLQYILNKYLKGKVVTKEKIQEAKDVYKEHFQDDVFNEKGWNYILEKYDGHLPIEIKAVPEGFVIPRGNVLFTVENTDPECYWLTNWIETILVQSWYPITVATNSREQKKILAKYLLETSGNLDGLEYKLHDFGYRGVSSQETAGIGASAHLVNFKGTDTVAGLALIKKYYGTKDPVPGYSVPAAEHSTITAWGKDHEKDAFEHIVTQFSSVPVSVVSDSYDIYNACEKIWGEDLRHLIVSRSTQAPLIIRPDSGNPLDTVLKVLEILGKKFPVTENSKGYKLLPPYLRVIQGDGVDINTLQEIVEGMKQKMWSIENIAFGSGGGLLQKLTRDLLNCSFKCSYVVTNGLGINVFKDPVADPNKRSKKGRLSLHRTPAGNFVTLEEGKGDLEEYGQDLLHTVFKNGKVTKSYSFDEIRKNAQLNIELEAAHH

| SMILES | IC50 [µM] |
| --- | --- |
| Nc1ccc(/C=C/C(=O)NCC[C@@H]2[C@H]3CN(C(=O)NC4CCOCC4)C[C@@H]23)cn1 [Example 32, (1R,5S,6s)-6-(2-((E)-3-(6-aminopyridin-3-yl)acrylamido)ethyl)-N-(tetrahydro-2H-pyran-4-yl)-3-azabicyclo[3.1.0]hexane-3-carboxamide] | 0.01 to 0.49 |
| Nc1ccc(/C=C/C(=O)NCC[C@@H]2[C@H]3CN(C(=O)OC4CCCC4)C[C@@H]23)cn1 [Example 34, (1R,5S,6s)-cyclopentyl 6-(2-((E)-3-(6-aminopyridin-3-yl)acrylamido)ethyl)-3-azabicyclo[3.1.0]hexane-3-carboxylate] | 0.01 to 0.49 |
| CC1(OC(=O)N2C[C@@H]3[C@@H](CCNC(=O)/C=C/c4ccncc4)[C@@H]3C2)COC1 [Example 35, (1R,5S,6s)-3-methyloxetan-3-yl 6-(2-((E)-3-(pyridin-4-yl)acrylamido)ethyl)-3-azabicyclo[3.1.0]hexane-3-carboxylate] | 1 to 29 |
| CC1(OC(=O)N2C[C@@H]3[C@@H](CCNC(=O)c4cc5cnccc5[nH]4)[C@@H]3C2)COC1 [Example 36, (1R,5S,6s)-3-methyloxetan-3-yl 6-(2-(1H-pyrrolo[3,2-c]pyridine-2-carboxamido)ethyl)-3-azabicyclo[3.1.0]hexane-3-carboxylate] | 0.01 to 0.49 |
| CC1(OC(=O)N2C[C@@H]3[C@@H](CCNC(=O)c4cc5cnccc5s4)[C@@H]3C2)COC1 [Example 37, (1R,5S,6s)-3-methyloxetan-3-yl 6-(2-(thieno[3,2-c]pyridine-2-carboxamido)ethyl)-3-azabicyclo[3.1.0]hexane-3-carboxylate] | 0.01 to 0.49 |
| Nc1ccc(/C=C/C(=O)NCC[C@@H]2[C@H]3CN(C(=O)Oc4ccccc4)C[C@@H]23)cn1 [Example 40, (1R,5S,6s)-phenyl 6-(2-((E)-3-(6-aminopyridin-3-yl)acrylamido)ethyl)-3-azabicyclo[3.1.0]hexane-3-carboxylate] | 0.01 to 0.49 |
| Nc1ccc(/C=C/C(=O)NCC[C@@H]2[C@H]3CN(C(=O)OC4CCOCC4)C[C@@H]23)cn1 [Example 41, (1R,5S,6s)-tetrahydro-2H-pyran-4-yl 6-(2-((E)-3-(6-aminopyridin-3-yl)acrylamido)ethyl)-3-azabicyclo[3.1.0]hexane-3-carboxylate] | 0.01 to 0.49 |
| CC1(OC(=O)N2C[C@@H]3[C@@H](CCNC(=O)N4Cc5ccc(F)cc5C4)[C@@H]3C2)COC1 [Example 42, (1R,5S,6s)-3-methyloxetan-3-yl 6-(2-(5-fluoroisoindoline-2-carboxamido)ethyl)-3-azabicyclo[3.1.0]hexane-3-carboxylate] | 0.01 to 0.49 |
| CC1(OC(=O)N2C[C@@H]3[C@@H](CCNC(=O)c4ccc5ncsc5c4)[C@@H]3C2)COC1 [Example 44, (1R,5S,6s)-3-methyloxetan-3-yl 6-(2-(benzo[d]thiazole-6-carboxamido)ethyl)-3-azabicyclo[3.1.0]hexane-3-carboxylate] | 0.01 to 0.49 |
| Nc1ccc(/C=C/C(=O)NCC[C@@H]2[C@H]3CN(S(=O)(=O)c4ccccc4)C[C@@H]23)cn1 [Example 45, (E)-3-(6-aminopyrdiin-3-yl)-N-(2-((1R,5S,6s)-3-(phenylsulfonyl)-3-azabicyclo[3.1.0]hexan-6-yl)ethyl)acrylamide] | 0.01 to 0.49 |
| Nc1ccc(/C=C/C(=O)NCC[C@@H]2[C@H]3CN(S(=O)(=O)C4CCOCC4)C[C@@H]23)cn1 [Example 47, (E)-3-(6-aminopyridin-3-yl)-N-(2-((1R,5S,6s)-3-((tetrahydro-2H-pyran-4-yl)sulfonyl)-3-azabicyclo[3.1.0]hexan-6-yl)ethyl)acrylamide] | 0.01 to 0.49 |
| Nc1ccc(/C=C/C(=O)NCC[C@@H]2[C@H]3CN(S(=O)(=O)C4CCCC4)C[C@@H]23)cn1 [Example 48, (E)-3-(6-aminopyridin-3-yl)-N-(-2 ((1R,5S,6s)-3-(cyclopentylsulfonyl)-3-azabicyclo[3.1.0]hexan-6-yl)ethyl)acrylamide] | 0.01 to 0.49 |
| CC1(OC(=O)N2C[C@@H]3[C@@H](CCNC(=O)c4ccc5nc(N)sc5c4)[C@@H]3C2)COC1 [Example 49, (1R,5S,6s)-3-methyloxetan-3-yl 6-(2-(2-aminobenzo[d]thiazole-6-carboxamido)ethyl)-3-azabicyclo[3.1.0]hexane-3-carboxylate] | 1 to 29 |
| CN1CCC(OC(=O)N2C[C@@H]3[C@@H](CCNC(=O)/C=C/c4ccc(N)nc4)[C@@H]3C2)CC1 [Example 52, (1R,5S,6s)-(1-methylpiperidin)-4-yl 6-(2-((E)-3-(6-aminopyridin-3-yl)acrylamido)ethyl)-3-azabicyclo[3.1.0]hexane-3-carboxylate] | 0.01 to 0.49 |
| CC1(OC(=O)N2C[C@@H]3[C@@H](CCNC(=O)c4cnc5[nH]ncc5c4)[C@@H]3C2)COC1 [Example 55, (1R,5S,6s)-3-methyloxetan-3-yl 6-(2-(1H-pyrazolo[3,4-b]pyridine-5-carboxamido)ethyl)-3-azabicyclo[3.1.0]hexane-3-carboxylate] | > 30 |
| CC(C)(C)NC(=O)N1C[C@@H]2[C@@H](CCNC(=O)c3cc4ccncc4o3)[C@@H]2C1 [Example 56, N-(2-((1R,5S,6s)-3-(tert-butylcarbamoyl)-3-azabicyclo[3.1.0]hexan-6-yl)ethyl)furo[2,3-c]pyridine-2-carboxamide] | 0.01 to 0.49 |

Continued, values first:

| IC50 [µM] | SMILES |
| --- | --- |
| 0.01 to 0.49 | Nc1ccc(/C=C/C(=O)NCC[C@@H]2[C@H]3CN(C(=O)Nc4ccccc4)C[C@@H]23)cn1 [Example 31, (1R,5S,6s)-6-(2-((E)-3-(6-aminopyridin-3-yl)acrylamido)ethyl)-N-phenyl-3-azabicyclo[3.1.0]hexane-3-carboxamide] |
| 0.01 to 0.49 | CCN(CC)C(=O)N1C[C@@H]2[C@@H](CCNC(=O)/C=C/c3ccc(N)nc3)[C@@H]2C1 [Example 33, (1R,5S,6s)-6-(2-((E)-3-(6-aminopyridin-3-yl)acrylamido)ethyl)-N,N-diethyl-3-azabicyclo[3.1.0]hexane-3-carboxamide] |
| 0.01 to 0.49 | CC1(OC(=O)N2C[C@@H]3[C@@H](CCNC(=O)c4ccc5nccn5c4)[C@@H]3C2)COC1 [Example 38, (1R,5S,6s)-3-methyloxetan-3-yl 6-(2-(imidazo[1,2-a]pyridine-6-carboxamido)ethyl)-3-azabicyclo[3.1.0]hexane-3-carboxylate] |
| 0.01 to 0.49 | Nc1ccc(/C=C/C(=O)NCC[C@@H]2[C@H]3CN(C(=O)N4CCCC4)C[C@@H]23)cn1 [Example 39, (E)-3-(6-aminopyridin-3-yl)-N-(2-((1R,5S,6s)-3-(pyrrolidine-1-carbonyl)-3-azabicyclo[3.1.0]hexan-6-yl)ethyl)acrylamide] |
| 0.01 to 0.49 | CC1(OC(=O)N2C[C@@H]3[C@@H](CCNC(=O)c4cnc5nccn5c4)[C@@H]3C2)COC1 [Example 43, (1R,5S,6s)-3-methyloxetan-3-yl 6-(2-(imidazo[1,2-a]pyrimidine-6-carboxamido)ethyl)-3-azabicyclo[3.1.0]hexane-3-carboxylate] |
| 0.01 to 0.49 | Nc1ccc(/C=C/C(=O)NCC[C@@H]2[C@H]3CN(S(=O)(=O)c4ccc(F)cc4)C[C@@H]23)cn1 [Example 46, (E)-3-(6-aminopyridin-3-yl)-N-(2-((1R,5S,6s)-3-((4-fluorophenyl)sulfonyl)-3-azabicyclo[3.1.0]hexan-6-yl)ethyl)acrylamide] |
| 0.01 to 0.49 | CC1(OC(=O)N2C[C@@H]3[C@@H](CCNC(=O)c4cc(-c5cccnc5)on4)[C@@H]3C2)COC1 [Example 50, (1R,5S,6s)-3-methyloxetan-3-yl 6-(2-(5-(pyridin-3-yl)isoxazole-3-carboxamido)ethyl)-3-azabicyclo[3.1.0]hexane-3-carboxylate] |
| 0.01 to 0.49 | Nc1ccc(/C=C/C(=O)NCC[C@@H]2[C@H]3CN(C(=O)OC4Cc5ccccc5C4)C[C@@H]23)cn1 [Example 51, (1R,5S,6s)-2,3-dihydro-1H-inden-2-yl 6-(2-((E)-3-(6-aminopyridin-3-yl)acrylamido)ethyl)-3-azabicyclo[3.1.0]hexane-3-carboxylate] |
| 1 to 29 | CC1(OC(=O)N2C[C@@H]3[C@@H](CCNC(=O)/C=C/c4cnc(N)nc4)[C@@H]3C2)COC1 [Example 54, (1R,5S,6s)-3-methyloxetan-3-yl 6-(2-((E)-3-(2-aminopyrimidin-5-yl)acrylamido)ethyl)-3-azabicyclo[3.1.0]hexane-3-carboxylate] |
| 0.01 to 0.49 | O=C(NCC[C@@H]1[C@H]2CN(C(=O)Nc3ccccc3)C[C@@H]12)c1cc2ccncc2o1 [Example 57, N-(2-((1R,5S,6s)-3-(phenylcarbamoyl)-3-azabicyclo[3.1.0]hexan-6-yl)ethyl)furo[2,3-c]pyridine-2-carboxamide] |
| 0.01 to 0.49 | O=C(NCC[C@@H]1[C@H]2CN(C(=O)N3CCOCC3)C[C@@H]12)c1cc2ccncc2o1 [Example 58, N-(2-((1R,5S,6s)-3-(morpholine-4-carbonyl)-3-azabicyclo[3.1.0]hexan-6-yl)ethyl)furo[2,3-c]pyridine-2-carboxamide] |

— US12421210B2, “Fused bicyclic heterocycles as therapeutic agents” (NEW YORK UNIVERSITY, priority 2018, dated 2025)
